Data: US20180243325A1, “METHOD FOR INHIBITING ABSORPTION OF AND/OR PROMOTING EXCRETION OF LIPIDS USING D-PSICOSE” (CJ CHEILJEDANG CORPORATION, priority 2015, published 2018)

Experiments:
Format in all cases: in vivo, C57BL/6J mice
[1] = tested on: FATP4 (fatty acid transporter 4, 26569); assay: Small intestine mRNA expression, real-time quantitative PCR: FATP4; details: FIG. 8, HFD+5% w/w in diet, 16 weeks
Description: (§1) First, 4-week-old male C57BL/6J mice (60 total) were purchased from Jackson Laboratory. The animals were acclimated to the vivarium in a thermo-hygrostat (20-23° C., 45-65%) under a 12 h light/dark cycle and fed a pelletized commercial non-purified diet for 1 week after arrival. The mice were then randomly divided into 6 groups (n=10) and fed the respective experimental diets for 16 weeks: normal diet group (ND, American Institute of Nutrition (AIN)-76 semi-synthetic diet), high-fat diet group (HFD, 20% fat+1% cholesterol based on AIN-76 diet), PSI group (HFD+5% D-psicose, w/w, Sigma Chemical Company), ERY group (HFD+5% erythritol, w/w, Sigma Chemical Company), GLU group (HFD+5% D-glucose, w/w, Sigma Chemical Company), and FRU group (HFD+5% D-fructose, w/w, Sigma Chemical Company). All high-fat diet-fed groups were allowed to ingest the same calories by pair feeding based on the PSI group. The mice had ad libitum access to distilled water during the experimental period. Their feed intakes and body weights were measured daily and biweekly, respectively. The organ weights and the adipose tissue weights of the mice were measured after sacrificing the animals.
Samples were prepared and analyzed as previously described. Specifically, total RNA was synthesized into cDNA using a QuantiTect Reverse Transcription kit (QIAGEN Gmb1h, Hilden, Germany). RNA expression was quantified with real-time quantitative PCR using a QuantiTect SYBR Green PCR kit (QIAGEN Gmb1h, Hilden, Germany). Primers were designed to detect CD36 (cluster of differentiation 36, 12491), ApoB48 (apolipoprotein B 48, 238055), FATP4 (fatty acid transporter 4, 26569), ABCG5 (ATP-binding cassette sub-family G member5, 27409), and ABCG8 (ATP-binding cassette sub-family G member8, 67470). GAPDH was used as an internal transcription marker. The reaction was performed a total of 40 cycles (each consisting of 15 sec at 94° C., 30 sec at 58° C., 30 sec at 72° C., and 15 sec at 65° C.). Fluorescence signals were monitored every cycle and the resulting threshold cycles (Ct) were analyzed. mRNA expression in each experimental group was quantified using a CFX96 Real time system (Bio-rad, USA).

[2] = tested on: high-fat diet-induced obese mice; assay: Body weight, organ weight and adipose tissue weight of high-fat diet-induced obese mice; details: for Adipose times weight: Epididymal fat / Adipose times weight: Interscapular BAT / Adipose times weight: Interscapular WAT / Adipose times weight: Mesentery fat / Adipose times weight: Perinephric fat / Adipose times weight: Retroperitoneum fat / Adipose times weight: Subcutaneous fat / Adipose times weight: Total WAT / Adipose times weight: Visceral fat / BWG (weight gain) / FER (food efficiency ratio = Weight gain/diet intake) / FinalBodyweight / Organ weights: Kidney / Organ weights: Liver / Organ weights: Muscle: HFD+5% w/w in diet, 16 weeks
Description: as §1

[3] = tested on: ABCG8 (ATP-binding cassette sub-family G member8, 67470); assay: Small intestine mRNA expression, real-time quantitative PCR: ABCG8; details: high-fat diet-fed obese mice
Description: (§2) First, 4-week-old male C57BL/6J mice (60 total) were purchased from Jackson Laboratory. The animals were acclimated to the vivarium in a thermo-hygrostat (20-23° C., 45-65%) under a 12 h light/dark cycle and fed a pelletized commercial non-purified diet for 1 week after arrival. […] Their feed intakes and body weights were measured daily and biweekly, respectively. The organ weights and the adipose tissue weights of the mice were measured after sacrificing the animals.
(§3) Samples were prepared and analyzed as previously described. Specifically, total RNA was synthesized into cDNA using a QuantiTect Reverse Transcription kit (QIAGEN Gmb1h, Hilden, Germany). RNA expression was quantified with real-time quantitative PCR using a QuantiTect SYBR Green PCR kit (QIAGEN Gmb1h, Hilden, Germany). […] Fluorescence signals were monitored every cycle and the resulting threshold cycles (Ct) were analyzed. mRNA expression in each experimental group was quantified using a CFX96 Real time system (Bio-rad, USA).

[4] = tested on: ABCG5 (ATP-binding cassette sub-family G member5, 27409); assay: Small intestine mRNA expression, real-time quantitative PCR: ABCG5; details: high-fat diet-fed obese mice
Description: as §2, §3

Compound	mRNA expression level of FATP4 in the small intestine [1]	Adipose times weight: Epididymal fat [2] [g/100 g Body weight]	Adipose times weight: Interscapular BAT [2] [g/100 g Body weight]	Adipose times weight: Interscapular WAT [2] [g/100 g Body weight]	Adipose times weight: Mesentery fat [2] [g/100 g Body weight]	Adipose times weight: Perinephric fat [2] [g/100 g Body weight]	Adipose times weight: Retroperitoneum fat [2] [g/100 g Body weight]	Adipose times weight: Subcutaneous fat [2] [g/100 g Body weight]	Adipose times weight: Total WAT [2] [g/100 g Body weight]	Adipose times weight: Visceral fat [2] [g/100 g Body weight]	BWG (weight gain) [2] [g/16 weeks]	FER (food efficiency ratio = Weight gain/diet intake) [2]	FinalBodyweight [2] [g]	Organ weights: Kidney [2] [g/100 g Bodyweight]	Organ weights: Liver [2] [g/100 g Bodyweight]	Organ weights: Muscle [2] [g/100 g Bodyweight]	also measured
OC[C@@H](O)[C@@H](O)CO [ERY, erythritol]	significantly higher	7.92	0.57	4.56	2.43	0.92	2.21	4.88	22.93	18.36	1.32	0.059	40.22	0.77	5.37	0.77	–
O=C(CO)[C@@H](O)[C@H](O)[C@H](O)CO [FRU, D-fructose]	significantly higher	8.50	0.73	4.43	2.93	1.17	2.19	3.78	22.65	18.22	1.39	0.065	41.26	0.84	5.68	0.83	–
O=C[C@H](O)[C@@H](O)[C@H](O)[C@H](O)CO [GLU, D-glucose]	significantly higher	8.42	0.71	4.54	2.62	1.15	2.01	5.47	24.21	19.67	1.39	0.065	41.77	0.74	5.22	0.82	–
O=C(CO)[C@H](O)[C@H](O)[C@H](O)CO [PSI, D-psicose]	significantly lower in the PSI group than those in other high-fat diet groups	–	–	–	–	–	–	–	–	–	0.70	–	–	–	4.35	–	mRNA expression level of FATP4 in the small intestine ([1]; listed as D-psicose): reduces mRNA expression; mRNA expression of ABCG8 (gene involved in lipid excretion) [3]: reduces mRNA expression; mRNA expression of ABCGS (gene involved in lipid excretion) [4]: reduces mRNA expression; increases in the body weight over time ([2]; FIG. 1, HFD+5% w/w in diet, measured biweekly over 16 weeks): considerably inhibited from 4 weeks after diet feeding; Organ weights: Liver ([2]; listed as D-psicose): to levels similar to those of the ND group
